Experimental data published in patent US20240116946A1 (Gilead Sciences, Inc., priority 2022, published 2024).
Read-outs that look alike come from different tables or passages of the source.

Assays:
SARS-CoV-2-NLuc = assay: microbe, parasite or virus in culture; type: cell-based, SARS Coronavirus 2
[1] = target: recombinant SARS-CoV-2 Main protease (Mpro) (Severe acute respiratory syndrome coronavirus 2 (2019-nCoV) (SARS-CoV-2), UniProt P0DTD1); assay: Cov Mpro Biochemical IC50 Assay; conditions: read-out: MPro IC50
[2] = Severe acute respiratory syndrome coronavirus, 48 h; read-out: MPro EC50
[3] = recombinant SARS-CoV-2 Mpro 7.5 nM, fluorogenic peptide substrate 40 μM
[4] = Severe acute respiratory syndrome coronavirus, 48 h, read-out: MPro EC50
[5] = recombinant SARS-CoV-2 Mpro, fluorogenic peptide substrate

SMILES	EC50 (SARS-CoV-2-NLuc; [2]) [nM]	IC50 [1, 3] [nM]	EC50 (SARS-CoV-2-NLuc; [4]) [nM]	IC50 [1, 5] [nM]	EC50 (SARS-CoV-2-NLuc; read-out: MPro EC50) [nM]
COc1cc(-c2cc3c(s2)c(=O)n(-c2cncc4cnn(C)c24)c(=O)n3CC#N)c(Cl)cc1F [Example 641, 2-[6-(2-chloro-4-fluoro-5-methoxy-phenyl)-3-(1-methylpyrazolo[4,3-c]pyridin-7-yl)-2,4-dioxo-thieno[3,2-d]pyrimidin-1-yl]acetonitrile]	< 4.42	2.2	–	–	–
COc1cc(-c2cc3c(s2)c(=O)n(-c2cncc4ccccc24)c(=O)n3CC#N)c(Cl)cc1F [Example 630, 2-[6-(2-chloro-4-fluoro-5-methoxy-phenyl)-3-(4-isoquinolyl)-2,4-dioxo-thieno[3,2-d]pyrimidin-1-yl]acetonitrile]	9.35	6.31	–	–	–
COc1ccc(C#N)c(-c2cc3[nH]c(=O)n(-c4cncc5sccc45)c(=O)c3s2)c1 [Example 608]	–	< 2.54	< 4.97	–	–
N#Cc1ccc(F)c(-c2cc3[nH]c(=O)n(-c4cncc5ccccc45)c(=O)c3s2)c1 [Example 547]	–	170	> 1000	–	–
CCCn1cc(-c2cccc(Cl)c2-c2ccc3c(=O)n(-c4cncc5ccccc45)c(=O)[nH]c3c2)c(C(F)(F)F)n1 [Example 200]	–	–	36	112	–
CN1C(=O)CCc2cc(-c3cccc(Cl)c3-c3ccc4c(=O)n(-c5cncc6ccccc56)c(=O)[nH]c4c3)ccc21 [Example 307]	–	–	10.4	16.9	–
Cc1c2c(-n3c(=O)c4sc(-c5cc(F)c(F)cc5Cl)cc4n(CCC#N)c3=O)cncc2nn1C [Example 798]	137	38.7	–	–	–
Cc1nn(C)cc1-c1cccc(Cl)c1-c1ccc2c(=O)n(-c3cncc4ccccc34)c(=O)[nH]c2c1 [Example 148]	–	–	14.1	10.4	–
COc1ccc(C#N)c(-c2cc3[nH]c(=O)n(-c4cncc5ccc(N6CCOCC6)cc45)c(=O)c3cc2F)c1 [Example 435]	–	6.97	37.4	–	–
O=c1c2sc(-c3ccccc3Cl)cc2n(Cc2ccncc2)c(=O)n1-c1cncc2ccccc12 [Example 157]	–	–	204	164	–
COc1cc(-c2cc3c(s2)c(=O)n(-c2cncc(OC4CC4)c2)c(=O)n3CCC#N)c(Cl)cc1F [Example 953]	–	8.28	36.3	–	–
CC(C)(O)[C@H](F)CNc1ccc2cncc(-n3c(=O)[nH]c4cc(-c5ccccc5Cl)sc4c3=O)c2c1 [Example 386]	–	–	56.2	3.96	–
Cc1cc(-c2cc3c(s2)c(=O)n(-c2cncc4ccccc24)c(=O)n3CCC#N)c(C#N)cc1F [Example 823]	–	16.3	25.7	–	–
Cc1ncc(-c2cccc(Cl)c2-c2ccc3c(=O)n(-c4cncc5ccccc45)c(=O)[nH]c3c2)n1C [Example 352]	–	–	120	41.8	–
O=c1[nH]c2cc(-c3ccccc3Cl)sc2c(=O)n1-c1cncc(C2CC2)c1 [Example 137]	–	–	40.1	15	–
COc1cc(-c2cc3[nH]c(=O)n(-c4cncc5ccccc45)c(=O)c3cc2OC)c(Cl)cc1F [Example 672, 7-(2-chloro-4-fluoro-5-methoxyphenyl)-3-(isoquinolin-4-yl)-6-methoxyquinazoline-2,4(1H,3H)-dione]	–	37.8	23.8	–	–
COc1ccc(C#N)c(-c2cc3[nH]c(=O)n(-c4cncc5ccccc45)c(=O)c3s2)c1 (single isomer, unassigned) [Example 555, 2-(3-(isoquinolin-4-yl)-2,4-dioxo-1,2,3,4-tetrahydrothieno[3,2-d]pyrimidin-6-yl)-4-methoxybenzonitrile]	–	21.5	–	–	79.6
Cc1ccc2cncc(-n3c(=O)[nH]c4cc(-c5ccccc5Cl)ccc4c3=O)c2c1 [Example 109]	–	–	423	265	–
COCCn1c(=O)n(-c2cncc3cnn(C)c23)c(=O)c2sc(-c3cc(OC)c(F)cc3Cl)cc21 [Example 1069]	–	38.9	130	–	–
N#CCn1c(=O)n(-c2cncc3ccccc23)c(=O)c2sc(-c3ccc(F)cc3Cl)cc21 [Example 727]	–	3.09	8.36	–	–
O=c1[nH]c2cc(-c3cc(OC(F)(F)F)ccc3Cl)sc2c(=O)n1-c1cncc2ccccc12 [Example 344]	–	–	374	110	–
COc1cc(-c2cc3c(s2)c(=O)n(-c2cncc4cnn(C)c24)c(=O)n3CCN(C)C)c(Cl)cc1F [Example 1068]	–	74.2	219	–	–

SMILES	EC50 (SARS-CoV-2-NLuc; [2]) [nM]	IC50 [1, 3] [nM]	EC50 (SARS-CoV-2-NLuc; [4]) [nM]	IC50 [1, 5] [nM]	EC50 (SARS-CoV-2-NLuc; read-out: MPro EC50) [nM]
COc1ccc(C#N)c(-c2cc3[nH]c(=O)n(-c4cncc5ccccc45)c(=O)c3cc2F)c1 (single isomer, unassigned) [Example 438, 2-(6-fluoro-3-(isoquinolin-4-yl)-2,4-dioxo-1,2,3,4-tetrahydroquinazolin-7-yl)-4-methoxybenzonitrile]	–	< 4.17	–	–	< 11.4
NC(=O)c1ccc(-c2cccc(Cl)c2-c2ccc3c(=O)n(-c4cncc5ccccc45)c(=O)[nH]c3c2)cc1 [Example 149, 4-[3-chloro-2-[3-(4-isoquinolyl)-2,4-dioxo-1H-quinazolin-7-yl]phenyl]benzamide]	–	–	40.2	19.2	–
COc1cc(-c2cc3c(s2)c(=O)n(-c2cncc4cccc(F)c24)c(=O)n3CCC#N)c(C#N)cc1F [Example 943]	–	10.3	10	–	–
COc1ccc(Cl)c(-c2ccc3c(=O)n(-c4cncc5ccccc45)c(=O)[nH]c3c2)c1 [Example 92, 7-(2-chloro-5-methoxy-phenyl)-3-(4-isoquinolyl)-1H-quinazoline-2,4-dione]	–	–	37.5	33.9	–
COc1ccc(C#N)c(-c2cc3[nH]c(=O)n(-c4cncc5ccccc45)c(=O)c3cc2F)c1 (single isomer, unassigned) [Example 439, 2-(6-fluoro-3-(isoquinolin-4-yl)-2,4-dioxo-1,2,3,4-tetrahydroquinazolin-7-yl)-4-methoxybenzonitrile]	–	828	–	–	377
Cn1nnc2cncc(-n3c(=O)c4sc(-c5ccccc5C#N)cc4n(CCC#N)c3=O)c21 [Example 877]	–	54.1	216	–	–
COc1ccc(Cl)c(-c2cc3[nH]c(=O)n(-c4cncc5ccc(O)cc45)c(=O)c3s2)c1 [Example 581]	–	< 2.54	151	–	–
COc1ccc(Cl)c(-c2cc3[nH]c(=O)n(-c4cncc5cccnc45)c(=O)c3s2)c1 [Example 456, 6-(2-chloro-5-methoxyphenyl)-3-(1,6-naphthyridin-8-yl)thieno[3,2-d]pyrimidine-2,4(1H,3H)-dione]	–	3.59	6.79	–	–
COc1cc(-c2cc3[nH]c(=O)n(-c4cncc5ccn(C)c(=O)c45)c(=O)c3s2)c(Cl)cc1F [Example 976, 6-(2-chloro-4-fluoro-5-methoxy-phenyl)-3-(6-methyl-5-oxo-2,6-naphthyridin-4-yl)-1H-thieno[3,2-d]pyrimidine-2,4-dione]	–	8.07	15.4	–	–
O=c1[nH]c2cc(-c3ccccc3Cl)sc2c(=O)n1-c1cnccc1N1CCN(C2COC2)CC1 [Example 117, 6-(2-chlorophenyl)-3-(4-(4-(oxetan-3-yl)piperazin-1-yl)pyridin-3-yl)thieno[3,2-d]pyrimidine-2,4(1H,3H)-dione]	627	–	–	156	–
CCn1cc(-c2cccc(Cl)c2-c2ccc3c(=O)n(-c4cncc5ccccc45)c(=O)[nH]c3c2)c(C)n1 [Example 275]	–	–	17.9	23.3	–
COc1ccc(OC)c(-c2ccc3c(=O)n(-c4cncc5ccccc45)c(=O)[nH]c3c2)c1 [Example 210]	–	–	2980	2830	–
COc1cc(-c2cc3c(s2)c(=O)n(-c2cncc4cnn(C)c24)c(=O)n3CC2CCCN2C)c(Cl)cc1F (stereo not shown) [Example 1071]	–	102	306	–	–
COc1ccc(Cl)c(-c2cc3[nH]c(=O)n(-c4cncc5ccc(C)nc45)c(=O)c3s2)c1 [Example 459]	–	18.1	20.2	–	–
COc1cc(-c2cc3[nH]c(=O)n(-c4cncc5cnn(C6CC6)c45)c(=O)c3s2)c(Cl)cc1F [Example 975, 6-(2-chloro-4-fluoro-5-methoxy-phenyl)-3-(1-cyclopropylpyrazolo[4,3-c]pyridin-7-yl)-1H-thieno[3,2-d]pyrimidine-2,4-dione]	–	6.33	10.3	–	–
CC(C)n1cc(-c2cccc(Cl)c2-c2ccc3c(=O)n(-c4cncc5ccccc45)c(=O)[nH]c3c2)c(C(F)(F)F)n1 [Example 282]	–	–	72.4	148	–
COc1ccc2cncc(-n3c(=O)[nH]c4cc(-c5ccccc5Cl)sc4c3=O)c2c1 [Example 175, 6-(2-chlorophenyl)-3-(6-methoxyisoquinolin-4-yl)thieno[3,2-d]pyrimidine-2,4(1H,3H)-dione]	–	–	26.6	4.68	–
COc1cc(-c2cc3c(s2)c(=O)n(-c2cncc4ccccc24)c(=O)n3C)c(Cl)cc1F [Example 993, 6-(2-chloro-4-fluoro-5-methoxy-phenyl)-3-(4-isoquinolyl)-1-methyl-thieno[3,2-d]pyrimidine-2,4-dione]	4.38	5.63	–	–	–
COc1cc(-c2cc3c(s2)c(=O)n(-c2cc(C)cnn2)c(=O)n3CCC#N)c(Cl)cc1F [Example 931]	–	2.53	5.48	–	–
O=c1[nH]c2cc(-c3ccccc3Cl)ccc2c(=O)n1-c1cncc2ccccc12 (single isomer, unassigned) [Example 105, 7-(2-chlorophenyl)-3-(isoquinolin-4-yl)quinazoline-2,4(1H,3H)-dione]	–	–	–	70.9	74.3
COc1ccc2cncc(-n3c(=O)[nH]c4cc(-c5ccccc5Cl)sc4c3=O)c2c1 (single isomer, unassigned) [Example 441, 6-(2-chlorophenyl)-3-(6-methoxyisoquinolin-4-yl)thieno[3,2-d]pyrimidine-2,4(1H,3H)-dione]	–	109	–	–	239
O=c1[nH]c2cc(-c3ccccc3Cl)sc2c(=O)n1-c1cncc2ccc(N3CC4C(C3)C4(F)F)cc12 (stereo not shown) [Example 231]	–	–	37.4	22.1	–
